Results taken from article PMC10845954, “Novel antimicrobial peptides identified in legume plant, Medicago truncatula” (Microbiology Spectrum, 2024).
Where a SMILES comes first, the peptide text is derived from it.

Tested on: leukemia (K562) cell line
Assay: Cell viability (MTT assay)
Format: cell-based, human
Settings: 100 µM, 24 hrs exposure, absorbance 540 nm, cutoff 20%, mean of four independent experiments
Procedure: Dulbecco’s modified Eagle medium (DMEM) supplemented with 10% fetal bovine serum (FBS) and 1% penicillin (10.000 IU/mL)/streptomycin (50 mg/mL) was used to grow the […] human leukemia cell line (K562) in flasks at 37°C in a humidified environment of 5% CO2/air.
K562 cells were cultivated in DMEM with FBS 10% and penicillin–streptomycin 1%, and they were incubated at 37°C with 5% CO2 present. Using the MTT assay, the cytotoxicity of the three NCRs was evaluated. K562 cells were grown at a density of 3–4 × 10^4 cells per well in a 96-well plate and allowed to adhere for 24 hrs. […] Using a microplate reader, absorbance was measured at 540 nm. […]
Fig 7 The toxicity % of the NCRs (NCR094 and NCR992) toward leukemia cell line (K562). […] Absorbance was read at 540, and the toxicity% was calculated from four independent experiments, and the results were represented as average of the % toxicity and standard deviations from four independent experiments. […]
The cells were treated with were treated with 10-fold concentration (100, 10, 1, 0 μM) of NCR992.1 After 24 hrs exposure, MTT were added, and cells were incubated for 4 hrs. […] Absorbance was read at 540 and the toxicity% were calculated and the results were presented as means and error bars were ± SD values from four independent experiments.

## CC[C@H](C)[C@H](NC(=O)[C@H](CCSC)NC(=O)CNC(=O)[C@H](Cc1ccccc1)NC(=O)[C@H](CCC(=O)O)NC(=O)[C@H](CS)NC(=O)[C@@H](N)CCSC)C(=O)N[C@@H](CCCNC(=N)N)C(=O)N[C@@H](CCCNC(=N)N)C(=O)N[C@@H](CS)C(=O)N[C@H](C(=O)N[C@@H](CO)C(=O)N[C@@H](Cc1ccc(O)cc1)C(=O)N[C@@H](CCCCN)C(=O)N[C@@H](CS)C(=O)N[C@@H](CCC(N)=O)C(=O)N[C@@H](CS)C(=O)N[C@@H](Cc1c[nH]cn1)C(=O)N[C@@H](CCC(=O)O)C(=O)N[C@@H](C)C(=O)N[C@@H](Cc1ccc(O)cc1)C(=O)O)[C@@H](C)CC [NCR992] (H-MCEFGMIRRCISYKCQCHEAY-OH; N-terminus and C-terminus assumed)
  toxicity % toward K562: 8.54%
